Assay results from publication PMC4521150, “Discovery of Novel Inhibitors and Fluorescent Probe Targeting NAMPT” (Scientific Reports, 2015).

Legend:
HepG2 NAD levels = assay: Cellular NAD measurement (enzymatic cycling assay) in HepG2 cells; type: cell-based, human
Protocol: Cellular level of NAD was measured by spectrophotometric enzymatic cycling assay, as described previously. Briefly, cells were seeded in 96-well plate and starved for over 12 h with serum-free DMEM at 60~70% confluency, following by treatment with compounds or vehicle for 24 h. Cells were lysed with 50 μl of 1M HClO4 on ice for 30 min. The lysates were cleared by centrifuging at 4 °C at 18,000 × g for 5 min, and cleared lysates (40 μl) were neutralized by adding 1M K2CO3 (16 μl) and incubation on ice for 20 min. After centrifuging for 10 min, 10 μl of supernatant were mixed with reaction buffer [50 mM Tris-HCl (pH 7.5), 3% ethanol, 1.66 mM PES (phenazineethosulfate), 0.42 mM MTT (3-(4,5-dimethylthiazolyl-2)-2,5-diphenyltetrazolium bromide), 90 μg/ml ADH] in a total volume of 100 ul, and incubated at 37 °C for 40 min. The absorbance at 570 nm was determined. A blank measurement without ADH was also carried out. Each experiment was carried out in triplicate in three replicate wells

recombinant human NAMPT = target: T1, recombinant human NAMPT (Homo sapiens, UniProt P43490); assay: HTS / fixed-concentration NAMPT activity screen (fluorometric); type: biochemical; conditions: 20 μM compound; analogues of the 46 non-fluorescent inhibitors
T1 construct: His tag (N); made in house; host or cells: E. coli BL21-CodonPlus (DE3)-RIL, pET21a+ vector
Description: Using our previously established high throughput screening (HTS) platform and recombinant human NAMPT[14][15], we performed a HTS on a chemical library containing 30000 small-molecules (Chemdiv, CA, USA). Our HTS targeting NAMPT was developed based on a fluorometric method for NAMPT activity assay by measuring the fluorescence of nicotinamide mononucleotide (NMN) derivative resulting from the NAMPT enzymatic product NMN through simple chemical reactions (Fig. 1A). The 30000 compounds were dissolved with dimethyl sulfoxide (DMSO); most of compounds were soluble at 10 mM stock solution (94.1%), some compounds insoluble at 10 mM were soluble at 2.5 mM stock solution (4.4%), and the remaining compounds insoluble at 2.5 mM (1.5%) were diluted further during HTS experiments (Fig. 1B). To guarantee the quality of screening, S/N ratio, CV and Z’ factors were monitored throughout the screenings, and all three indices met the requirements of HTS (Fig. 1C–E). After a primary screen and a secondary screen of all compounds at 20 μM, 242 compounds were selected as the hits of NAMPT inhibitors (NAMPT activity < 40%), and the hit rate was ~0.8% (Fig. 1F). […] All these 55 compounds were not reported as NAMPT inhibitors previously. Among the 55 compounds, we noted 46 compounds were non-fluorescent and 9 compounds were fluorescent (Fig. 1F). These fluorescent and non-fluorescent compounds were further studied separately.
HTS was performed using our previously reported method. 0.5 μl stock of each compound (1 mM DMSO stock) was transferred to a 96-well PCR plate for screening. In the primary screening, 5 ng NAMPT in 20 μl reaction buffer [0.4 mM phosphoribosylpyrophosphate (PRPP, Sigma), 2 mM ATP, 0.02% BSA, 2 mM DTT, 12 mM MgCl2 and 50 mM Tris-HCl (pH = 7.5)] was added into each well, the plate was incubated at 37 °C for 5 min, then 4.5 μl substrate of NAM was added to initiate the enzyme reaction, resulting in a final concentration of 2% DMSO, 2 μg/ml NAMPT, 0.2 μM NAM and 20 μM compound. After reacting at 37 °C for 15 min, the enzyme reaction was terminated by heating at 95 °C for 1 min and cooling in an ice bath. The product of NMN was detected through the following approach: after adding 10 μl 20% acetophenone in DMSO and 10 μl 2 M KOH into each well, the mixture was vortex-mixed and kept in ice bath for 2 min. Then 45 μl 88% formic acid was added and the mixture was incubated at 37 °C for 10 min. Finally, 85 μl mixtures in each well were transferred into a flat-bottom 96-well black plate (Greiner), and the fluorescence (F) was measured using a Tecan Infinity M200 plate reader (Tecan Group Ltd.) by setting the excitation and emission wavelength to 382 nm and 445 nm respectively. The last row of each 96-well plate includes six wells of background controls and six wells of reference controls. The relative enzyme activity (Activity%) regulated by specific compound was calculated according to equation (1):
F0 was the averaged fluorescence of six background controls, representing zero activity from a simulated enzyme reaction with only NAMPT but no NAM and compound; F100% was the averaged fluorescence of six reference controls, representing 100% activity from intact enzyme reaction without compound perturbation.
Compounds with Activity% less than 40% were considered as inhibitors and subjected to a secondary screen inhibition validation, in which another background control (FC0), a simulated enzyme reaction with NAMPT and compound but no NAM, was introduced to eliminate the direct and/or indirect influence from compound. At this stage, the Activity% was calculated according to equation (2): […]

[1] = test system: primary mouse hepatocytes; assay: Cell viability of primary hepatocytes from normal mice; type: cell-based; conditions: 30 μM
Protocol: Cell viability was determined by our previous method[27] using the Cell Counting Kit-8 (CCK-8, Dojindo, Japan). In human hepatocellular carcinoma cell line HepG2, cells were seeded in 96-well plate and starved for over 12 h with serum-free DMEM at 60~70% confluency, then treated with compounds or vehicle for 48 h. To determine the IC50 values of inhibitors, compounds with various concentrations were added into the 96-well plate. 10 μl CCK-8 solution was added to the culture medium and incubated at 37 °C for 1 h. The absorbance at 450 nm (A450) was detected by a plate reader. Each experiment was carried out in triplicate in three replicate wells. The IC50 values were determined by non-linear fitting of the concentration-dependent curves with the four-parameter IC50 logistic equation.
(§1) Hepatocytes were isolated from mouse liver by the two-step collagenase perfusion method. […] For imaging experiment, 1 × 10^5 cells were plated in a 35-mm glass bottom dishes or 5 × 10^4 were plated in 48-well plate for cell viability assay in DMEM supplemented with 10% FBS and antibiotics, and kept under an atmosphere of 95% air and 5% CO2 at 37 °C.

Huh-7 cell = assay: Cell viability in Huh-7 cells; type: cell-based, human; conditions: Huh-7, Figure S2
Description: However, IC50 values for other 5 fluorescent compounds were able to be determined (Supplemental dataset S2). We then measured the fluorescence of all 9 fluorescent compounds at a series of different concentrations.

[2] = test system: primary mouse hepatocytes; assay: Live cell fluorescence imaging in primary mouse hepatocytes (wild type vs NAMPT over expression transgenic); type: cell-based; conditions: hepatocytes of NAMPT over expression transgenic vs wild type mice, 3 μM
Protocol: as §1
For imaging experiment, HepG2 cells or primary hepatocytes were seeded into 35-mm glass bottom dishes (In Vitro Scientific). The following day, compounds were added to the medium at a final concentration of 3 μM. After 30 minutes, cells were rinsed twice with PBS (pH 7.5), then incubated in fresh culture medium and imaged on a fluorescence microscope (IX-71, Olympus) with a digital camera (Olympus). After 4 hours, these cells were imaged once again. Digital images were recorded and analyzed using ImageJ.

T1 sequence (P43490 whole entry): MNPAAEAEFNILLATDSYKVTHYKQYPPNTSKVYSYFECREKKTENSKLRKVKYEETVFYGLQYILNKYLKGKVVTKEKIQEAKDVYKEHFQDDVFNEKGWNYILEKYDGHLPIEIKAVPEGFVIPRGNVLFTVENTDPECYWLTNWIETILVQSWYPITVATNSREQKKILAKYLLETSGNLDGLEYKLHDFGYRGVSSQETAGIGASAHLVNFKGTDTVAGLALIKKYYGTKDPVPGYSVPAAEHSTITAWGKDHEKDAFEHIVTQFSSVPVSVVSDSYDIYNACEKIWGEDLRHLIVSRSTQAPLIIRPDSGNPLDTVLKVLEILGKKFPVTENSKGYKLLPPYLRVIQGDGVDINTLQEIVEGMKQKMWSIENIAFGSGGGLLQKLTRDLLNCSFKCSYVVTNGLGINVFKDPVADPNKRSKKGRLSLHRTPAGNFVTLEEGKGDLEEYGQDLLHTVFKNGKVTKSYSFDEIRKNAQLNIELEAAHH

IC50 (HepG2 NAD levels; Homo sapiens, HepG2, 24 hours treatment, read-out: IC50 for reducing NAD level): 17.6 nM
NAMPT inhibition activity at 20 μM (recombinant human NAMPT): Yes
Structure (SMILES): CCCn1c(=O)c(-c2ccc(C(=O)NCc3cccnc3)cc2)nc2ccccc21 [M049-0244]
Decrease of cellular NAD level (HepG2 NAD levels; HepG2, 1 μM, 24 hours): ~ 80%
Inhibition of normal hepatocytes viability [1]: ~ 20%
Effect on Huh-7 cell viability (Huh-7 cell): Inhibitory effects
Cellular fluorescence intensity with NAMPT over expression [2]: increased the cellular fluorescence intensity
